In patent publication US6489481B1, “Method for treating neurological disorders” (AstraZeneca AB, priority 1998, dated 2002):
Counter-ions that a name gives are not always drawn.

Key:
[1] = test system: mouse cortical neurons; assay: Inhibition of NMDA-induced death of mouse cortical neurons in primary cell culture (LDH); type: cell-based; details: result in words; NMDA-induced neuronal death is the patent's necrosis model
Procedure: Inhibition of NMDA-induced Death of Mouse Cortical Neurons in Primary Cell Culture
A glial feeder layer was prepared from post-natal day 1 or 2 mice. Cortices were dissected in a Ca^2+/Mg^2+-free balanced salt solution, minced, incubated in media stock (MS: GIBCO's MEM supplemented with bicarbonate, glucose, and glutamine) containing trypsin for 30 minutes at 37° C., and centrifuged at 1500 g for 5 minutes to produce a cell pellet. The pellet was re-suspended in plating media (MS supplemented with horse and fetal calf serum) and triturated with a glass pasteur pipette. Cells were plated in 24-well Falcon Primaria tissue culture dishes at a density of 0.5 hemispheres per plate. The dishes had been coated overnight with 10 mg/ml mouse laminin and 25 mg/ml poly-lysine, then washed three times with water. The glial feeder layer was maintained in a humidified atmosphere of 5% CO2/95% air at 37° C. for two weeks. […]
LDH activity was measured as follows: 50 ml of cell-culture media from each well was mixed with 200 ml 0.1 M KH2PO4 containing 30 mg NADH, in a 96-well microtitre plate. After 10 minutes at room temperature, 30 ml of 2.4 mM sodium pyruvate was added, and the absorbance of this solution at 340nm was immediately measured at 15 second intervals for approximately 6 minutes using a Molecular Devices Spectromax 250 plate-reader. […]

[2] = test system: PC12 cells; assay: Inhibition of apoptosis in PC12 cells induced by NGF withdrawal (Cell Death Detection ELISA); type: cell-based, rat
Procedure: Inhibition of Apoptosis in PC12 Cells Induced by NGF Withdrawal
Rat PC12 cells (ATCC Accession Number CRL-1721) were grown in RPMI0-1640 buffer containing 10% heat-inactivated Fetal Bovine Serum (FBS) and 1% L-glutamine (Gibco). Cells were plated in 100 mm Collagen I Falcon plates (Becton Dickinson)at a density of ˜1×10^6-2×10^6 and passed every other day at 1:10 ratio (cells were trypsinized and centrifuged at 1000 rpm for 5 min. Cells were resuspended and plated at the density of 1-2×10^6 cells). Tamoxifen was dissolved in DMSO at a concentration of 10 mM. Subsequent dilutions were done in PC12 cell growth medium containing 1% FBS. […]
Cells were harvested at various time points after the NGF withdrawal procedure to determine the time course of cell death. […] Compounds were used at various concentrations and the extent of apoptosis that occurred in the presence of compounds was expressed as a percentage relative to control cultures that were exposed to vehicle only. […]
Cell death was measured using a Cell Death Detection ELISA (Boehringer-Mannheim Cat# 1774425) according to manufacturers instructions.The ELISA is a photometric enzyme-immunoassay which determines the amount of cytoplasmic histone-associated-DNA-fragments after induced cell death. […]

[3] = target: T1, emopamil binding protein (Cavia porcellus, UniProt Q60490); assay: Displacement of 3H-emopamil binding to guinea pig liver membranes; details: 0.96 nM (-)-3H-emopamil
T1 construct: Guinea pig liver membranes: 40 mg/mL original wet weight; from tissue; host or cells: guinea pig liver membranes (male guinea pigs)
T1 sequence (Q60490 1-229): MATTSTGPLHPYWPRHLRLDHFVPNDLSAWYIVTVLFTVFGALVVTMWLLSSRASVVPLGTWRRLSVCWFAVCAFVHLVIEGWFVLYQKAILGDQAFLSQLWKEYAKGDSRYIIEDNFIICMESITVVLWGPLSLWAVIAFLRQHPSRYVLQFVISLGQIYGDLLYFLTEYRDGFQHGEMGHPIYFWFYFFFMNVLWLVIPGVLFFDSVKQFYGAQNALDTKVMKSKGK
Procedure: Displacement of ^3H-Emopamil Binding to Guinea Pig Liver Membranes
The method of displacement of ^3H-emopamil binding was a modification of Zech et al (1991) Eur. J. Pharm. 208:119-130.
The Guinea-pig liver membranes were prepared as follows: Male guinea pigs were sacrificed by CO2 asphyxiation with dry ice. The livers were quickly excised and weighed and rinsed in membrane preparation buffer containing 10 mM Hepes, 1 mM Tris base-EDTA, 250 mM sucrose, pH 7.4. The livers were then minced homogenized in 10 times volume with a motor driven Teflon-glass homogenizer with three strokes on ice. The homogenate was centrifuged at 1000×g in a SS34 rotor for 5 minutes at 4° C. The supernatant was filtered through 4 layers of gauze and then centrifuged at 8000×g for 10 minutes 4° C. This resulting supernatant was centrifuged at 40,000×g for 15 minutes at 4° C. The resulting pellet was resuspended in assay buffer and centrifuged again at 40,000×g for 15 minutes at 4° C. This pellet was resuspended in assay buffer (2.5 fold with respect to original wet weight) and homogenized with one stroke with the Teflon-glass homogenizer. Aliquots of 1 mL were stored at −70° C.
The displacement assay was performed as follows: The reaction mixture contained: Assay buffer: 10 mM Tris-HCl, 0.1 mM phenylmethylsulfonyl fluoride (PMSF), 0.2% bovine serum albumin (BSA), pH 7.4 at […]. […]

Row | SMILES | inhibition of necrosis [1] | inhibition of apoptosis ([2]; result in words) | IC50 [3] [nM] | percentage in the PC12 assay (extent of apoptosis relative to control) ([2]; relative to vehicle-only control cultures, 100% = no inhibition of apoptosis, 0% = total inhibition) [%]
1 | CC/C(=C(\c1ccccc1)c1ccc(OCCN(C)C)cc1)c1ccccc1 [tamoxifen citrate] | inhibit both apoptosis and necrosis | inhibit both apoptosis and necrosis | – | –
2 | CC/C(=C(/c1ccc(OCCN(C)C)cc1)c1ccc(OC(=O)C(C)(C)C)cc1)c1ccccc1 [Example 11, 2,2-dimethyl-, 4-[1-[4-[2-(dimethylamino)ethoxy]phenyl]-2-phenyl-1-butenyl]phenyl Propanoic acid ester, (E)-] | – | – | 75 | 41
